{"source": "ChEMBL document CHEMBL1145125", "about": "“Simple, intuitive calculations of free energy of binding for protein-ligand complexes. 2. Computational titration and pH effects in molecular models of neuraminidase-inhibitor complexes” (J Med Chem, 2003)", "assay": "In vitro inhibitory activity against neuraminidase", "parameters": "species or system unidentified influenza virus", "data": [{"compound": "CC(=O)N[C@H]1[C@H]([C@H](O)[C@H](O)CN)OC(C(=O)O)=C[C@@H]1O", "values": [{"measurement": "Ki", "value": 400, "unit": "µM"}]}, {"compound": "CCCN(CCc1ccccc1)C(=O)[C@@H]1OC(C(=O)O)=C[C@H](N)[C@H]1NC(C)=O", "values": [{"measurement": "IC50", "value": 3.6, "unit": "µM"}]}, {"compound": "CC(=O)N[C@H]1[C@H]([C@H](O)[C@H](O)CO)OC(C(=O)O)=C[C@@H]1N", "values": [{"measurement": "Ki", "value": 0.04, "unit": "µM"}]}, {"compound": "CC(=O)Nc1c(O)cc(C(=O)O)cc1[N+](=O)[O-]", "values": [{"measurement": "IC50", "value": 750, "unit": "µM"}]}, {"compound": "CC(=O)Nc1ccc(C(=O)O)cc1N", "values": [{"measurement": "IC50", "value": "> 10", "unit": "µM"}]}, {"compound": "CC(=O)Nc1c(N)cc(C(=O)O)cc1O", "values": [{"measurement": "IC50", "value": "> 10", "unit": "µM"}]}, {"compound": "CC(=O)N[C@H]1[C@H]([C@H](O)[C@H](O)CO)OC(C(=O)O)=C[C@@H]1O", "note": "[NEU5AC2EN]", "values": [{"measurement": "Ki", "value": 4, "unit": "µM"}]}, {"compound": "CC(=O)N[C@H]1[C@H]([C@H](O)[C@H](O)CN)OC(C(=O)O)=C[C@@H]1N", "values": [{"measurement": "Ki", "value": 15, "unit": "µM"}]}]}
